For orientation: GI50 means the concentration giving 50% growth inhibition. What is called TGI is the concentration giving total growth inhibition.

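Results reflect a 48-hour exposure of cells in 96-well plates to compound at five concentrations. At the GI50, growth is halved. TGI is the concentration that stops growth completely.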

Experiment in all cases: DTP human tumour cell line panel, 48 h
In assay [1] the test system is K-562 leukemia.
The test system of assay [2] is SNB-75 CNS.
Assay [3] relates to HOP-62 NSCLC.
Assay [4] deals with HS 578T breast.
In assay [5] the test system is NCI-H460 lung.
Assay [6] has as its system CCRF-CEM leukemia.
For assay [7], the system named is HL-60(TB) leukemia.
In assay [8] the test system is SF-268 CNS.
For assay [9], the system named is HCT-116 colon.
Assay [10] relates to HT29 colon.

Take `COc1ccc(/C(C)=C(\c2ccc(Cl)cc2)c2ccc(OCCN3CCCCCC3)cc2)cc1F`: the GI50 in assay [1] is 0.828 µM; in assay [2], 4.16 µM; in [3], 3.33 µM; in assay [4] it was 2.69 µM; in assay [5], 2.56 µM; in [6], 4.51 µM. Moreover, the GI50 in [7] is 3.25 µM; in [8], 6.42 µM; in assay [9], 1.98 µM; in [10], 0.611 µM. For the same molecule, the concentration for total growth inhibition (TGI) was 16.4 µM in assay [1]; 13.3 µM in assay [2]; 6.72 µM in assay [3]; 6.51 µM in assay [4]; 5.4 µM in [5]; above 16.7 µM in assay [6]. The concentration for total growth inhibition (TGI) in assay [7] was 7.11 µM; in assay [8], above 16.7 µM; in [9], 4.51 µM; in assay [10], above 16.7 µM.

Values taken from PubChem BioAssay (NCI).
